Assay results reported in US6479549B2, “Carnosic acid derivatives for promoting synthesis of nerve growth factor” (Nagase & Company, Ltd., priority 2000, dated 2002).

What was measured:
Wistar male rats = experiment: Ethanol-induced stomach ulcers in rats (ulcer index); format: in vivo; settings: 10 mg/kg body weight oral
Procedure: To Wistar male rats (5 rats per group) of 180-200 g body weight fasted for 24 hours before the start of a test, carnosic acid diacetate obtained in Example 1 was orally administered in a dose level of 10 mg per kg body weight, after suspending it in water. After 30 minutes of the administration, 1 ml of ethanol (99.5%) was orally administered to each rat. After one hour of the ethanol administration, laparotomy was carried out and the lengths of all ulcers developed in the stomach were measured arld added up. The total lengths of ulcers are taken as ulcer indexes.
The lengths of all ulcers developed in the stomach were measured and added up as described in Example 7, except that water containing carnosic acid methyl ester (10 mg per kg body weight) was used instead of water containing carnosic acid diacetate. The total lengths of ulcers are taken as ulcer indexes.
The lengths of all ulcers developed in the stomach were measured and added up as described in Example 7, except that water not containing carnosic acid diacetate was used instead of water containing carnosic acid diacetate. The total lengths of ulcers are taken as ulcer indexes.

[1] = tested on: Human glioblastoma cells (T98G cell line); experiment: NGF content in culture supernatant of T98G cells (sandwich enzyme immunoassay); format: cell-based; settings: for NGF Content in sample solution: 100 uM effective ingredient in Opti-MEM medium, T98G cells, 4 days cultivation, mean ± standard deviation, comparative example (none) 6.3 ± 1.2; for Relative NGF content: 100 uM, ratio of NGF content in example solution to that in comparative example solution (=1.0)
Procedure: Human glioblastoma cells (T98G cell line) were seeded in a MEM medium containing fetal bovine serum (10%; Gibco), sodium pyruvate (x 1; Gibco) and nonessential amino acids (x 1; Gibco) in wells of a flat-bottom 96-well plate (Corning), in a cell density of 2×10^4/well, and cultivated in a CO2 incubator (37° C., 5% CO2) for 3 days. The medium was then replaced by an Opti-MEM medium (containing 5 mg/ml of bovine serum albumin). The cultivation was continued for further 6 days with replacing the medium at intervals of 3 days.
After removing the medium, an Opti-MEM medium (containing 5 mg/ml of bovine serum albumin) containing 100 uM (micromole) of carnosic acid diacetate obtained in Example 1 was added to each well in an amount of 50 ul (microliter)/well, and the cultivation was continued for further 4 days. After the cultivation, the supernatant was taken as a sample solution.
On the other hand, 1 ug/ml of an anti-NGF antibody (Promega) solution (50 ul) was added to each well of a 96-well microplate (Nunc), and the plate was allowed to stand overnight at 4° C. After washing the plate with PBS(-) (Nissui Pharmaceuticals), 1% of a bovine serum albumin (Sigma) solution (100 ul) was added to each well of the plate and the plate was allowed to stand at room temperature for 4 hrs to block the plate. […]
Subsequently, 0.4 unit/ml of a beta-galactosidase-labeled anti-NGF antibody (Boehringer Mannheim) solution (50 ul) was added to each well of the plate, and allowed to react at room temperature for one hour. […] The fluorescence intensity of 4-methylumbelliferone produced was measured on a fluorescence plate reader, and the content of NGF contained in the sample solution was determined using a standard curve obtained from a standard solution (human beta-NGF; PEPRO TECH EC).
The content of NGF contained in the sample solution was determined as described in Example 4, except that an Opti-MEM medium (containing 5 mg/ml of bovine serum albumin) containing 100 uM of carnosic acid diacetate methyl ester obtained in Example 2 was used in an amount of 50 ul/well, instead of carnosic acid diacetate.
The content of NGF contained in the sample solution was determined as described in Example 4, except that an Opti-MEM medium (containing 5 mg/ml of bovine serum albumin) containing 100 uM of carnosic acid methyl ester obtained in Example 3 was used inan amount of 50 ul/well, instead of carnosic acid diacetate.
The content of NGF contained in the sample solution was determined as described in Example 4, except that an Opti-MEM medium (containing 5 mg/ml of bovine serum albumin) not containing carnosic acid diacetate was used in an amount of 50 ul/well, instead of the Opti-MEM medium containing carnosic acid diacetate.

SMILES | Ulcer index (Wistar male rats; 30 minutes before 1 ml ethanol (99.5%) oral, total length of stomach ulcers 1 hour after ethanol, mean ± standard deviation, comparative example 62.4) [mm] | Relative ulcer index (Wistar male rats; ratio of ulcer index in example to that in comparative example 2 (=100)) | NGF Content in sample solution [1] [pg/mL] | Relative NGF content [1]
COC(=O)[C@]12CCCC(C)(C)C1CCc1cc(C(C)C)c(O)c(O)c12 (stereo partly drawn) [Carnosic acid methyl ester, carnosic acid methyl ester] | 33.6 ± 3.6 | 53.8 | 33.3 ± 2.8 | 5.3
COC(=O)[C@@]12CCCC(C)(C)[C@H]1CCc1cc(C(C)C)c(OC(C)=O)c(OC(C)=O)c12 [Carnosic acid diacetate methyl ester, carnosic acid diacetate methyl ester] | – | – | 50.6 ± 4.3 | 8.0
